Assay results: paper PMC10714400, “Antimicrobial Peptide–Peptoid Hybrids with and without Membrane Disruption” (ACS Infectious Diseases, 2023)
Converted amounts (≈) assume the structure as drawn. Where a SMILES comes first, the peptide text is derived from it. [ ]: non-standard residue; d: D form. Nleu = CC(C)CNCC(=O)O; Nlys = NCCCCNCC(=O)O

What was measured:
A. baumannii ATCC19606 = test system: A. baumannii ATCC19606
Procedure: (§1) Antimicrobial activity was assayed for all the peptide–peptoids against P. aeruginosa PAO1, K. pneumoniae NCTC418, E. coli W3110, A. baumannii ATCC 19606, methicillin-resistant S. aureus COL (MRSA), and for selected peptides on P. aeruginosa PA14 and the polymyxin-B-resistant derivatives PA14 4.13, PA14 4.18, PA14 2P4, as well as the clinical isolates ZEM-1A and ZEM9A, K. pneumoniae OXA-48, S. aureus Newman, Enterobacter cloacae, Stenotrophomonas maltophilia, Burkholderia cenocepacia, and Staphylococus epidermidis. To determine the Minimal Inhibitory Concentration (MIC), the Broth Microdilution method was used.[72] A colony of bacteria was picked and grown in LB medium overnight at 37 °C.
(§2) To each well was finally added 4 μL of the diluted bacterial suspension (see above), corresponding to approximately 5 × 10^5 CFU. For each test, two columns of the plate were kept for sterility control (medium only), growth control (medium with bacterial inoculum, no compound). The positive control, Polymyxin B (starting with a concentration of 16 μg/mL) in MH medium with bacterial inocula, was introduced in the two lines of the plate. The plates were incubated at 37 °C for ca. 18 h under static conditions. Next, 15 μL of 3-(4,5-dimethylthiazol-2-yl)-2,5-diphenyltetrazolium bromide (MTT)[73] (1 mg/mL in sterilized MilliQ deionized water) were added to each well, and the plates were incubated for 20–30 min at room temperature. The minimal inhibitory concentration (MIC) was defined as the lowest concentration of the compound that inhibits the visible growth of the tested bacteria (yellow) with the unaided eye.

E. coli W3110 = test system: E. coli W3110
Procedure: as §1, §2

K. pneumoniae NCTC418 = test system: K. pneumoniae NCTC418
Procedure: as §1, §2

P. aeruginosa PAO1 = test system: P. aeruginosa PAO1
Procedure: as §1, §2

PA14 2P4 (pmrB) = details: CSV; […] MH at pH 8.5
Procedure: as §1, §2

PA14 4.13 (phoQ) = details: CSV; […] MH at pH 8.5
Procedure: as §1, §2

PA14 4.18 (pmrB) = details: CSV; […] MH at pH 8.5
Procedure: as §1, §2

S. aureus COL (MRSA) = test system: S. aureus COL (MRSA)
Procedure: as §1, §2

[1] = test system: human red blood cells (hRBC); experiment: Minimum hemolytic concentration (MHC); assay type: cell-based
From the text: We also measured minimal hemolysis concentrations (MHC) on human red blood cells by serial 2-fold dilution as an indication of toxicity against eukaryotic cells (Table 1).

[2] = Circular dichroism, α-helical content; assay type: physicochemical; details: 0.1 mg/mL; for CD %α with 5 mM DPC: 10 mM phosphate buffer pH 7.4, 5 mM DPC; for CD %α with 20% TFE: 10 mM phosphate buffer pH 7.4, 20% TFE
P. aeruginosa PA14 = details: Table S3; […] MH at pH 8.5, 16-20 hours at 37 °C
Procedure: as §1
as §2, with “The plates were incubated at 37 °C for ca. 18 h under static conditions.” left out

S. aureus Newman = details: Table S3; […] MH at pH 8.5
Procedure: as §1
as §2, with “The plates were incubated at 37 °C for ca. 18 h under static conditions.” left out

[3] = Lipid vesicle leakage assay; details: 10 mM TRIS, 107 mM NaCl, pH 7.4
Procedure: (c) Vesicle leakage assay for a selection of compounds.
EYPG - EB11 1 EYPC - EB11
Figure S2: Vesicle leakage experiments using 5(6)-carboxyfluorescein induced by peptides. EYPG and EYPC
compound was added after 45 sec. After 240 seconds, 30 µL Triton X-100 1.2% was added for full release of […]

In the case of `CC(C)C[C@H](NC(=O)CN(CC(C)C)C(=O)[C@H](CCCCN)NC(=O)CNCCCCN)C(=O)N(CCCCN)CC(=O)N[C@@H](CC(C)C)C(=O)N(CC(=O)N[C@@H](CCCCN)C(=O)N(CC(=O)N[C@@H](CC(C)C)C(=O)N(CC(N)=O)CC(C)C)CC(C)C)CC(C)C` [EB10, kKlLkLlKlLl] (H-[Nlys]K[Nleu]L[Nlys]L[Nleu]K[Nleu]L[Nleu]-NH2), the “MIC A. baumannii ATCC19606, full MH at pH 7.4” value (A. baumannii ATCC19606; ATCC19606, 4 h, pH 7.4) is reported as >32 ug/mL, the “MIC A. baumannii ATCC19606, full MH at pH 8.5” value (A. baumannii ATCC19606; ATCC19606, 4 h, pH 8.5) is reported as >32 ug/mL and the “MIC A. baumannii ATCC19606 […] 7.4” value (A. baumannii ATCC19606; Table S2, […] MH, pH 7.4) is reported as 16 µg/mL (≈ 12.1 µM). The “MIC A. baumannii ATCC19606 Full MH 7.4” value (A. baumannii ATCC19606; Table S2, full MH, pH 7.4) was > 32 µg/mL, the “MIC A. baumannii ATCC19606 Full MH 8.5” value (A. baumannii ATCC19606; Table S2, full MH, pH 8.5) was > 32 µg/mL and the “MIC E. coli W3110, […] MH at pH 8.5” value (E. coli W3110; CSV, […] MH at pH 8.5) was 3 ug/mL. The “MIC E. coli W3110, full MH at pH 7.4” value (E. coli W3110; CSV, full MH at pH 7.4) was >32 ug/mL, the “MIC E. coli W3110 […] 7.4” value (E. coli W3110; Table S2, […] MH, pH 7.4) was 2 µg/mL (≈ 1.51 µM) and the “MIC E. coli W3110 […] 8.5” value (E. coli W3110; Table S2, […] MH, pH 8.5) was 2 to 4 µg/mL. The “MIC E. coli W3110 Full MH 7.4” value (E. coli W3110; Table S2, full MH, pH 7.4) was > 32 µg/mL, the “MIC E. coli W3110 Full MH 8.5” value (E. coli W3110; Table S2, full MH, pH 8.5) was 32 µg/mL (≈ 24.2 µM) and the “MIC E. coli W3110 […]” value (E. coli W3110; diluted MH ([…] MH, pH 8.5) per Table 1 footnote b, 16–20 h at 37 °C) was 2 to 4 µg/mL. The “MIC K. pneumoniae NCTC418, full MH at pH 7.4” value (K. pneumoniae NCTC418; NCTC418, 4 h, pH 7.4) was >32 ug/mL, the “MIC K. pneumoniae NCTC418, full MH at pH 8.5” value (K. pneumoniae NCTC418; NCTC418, 4 h, pH 8.5) was >32 ug/mL and the “MIC K. pneumoniae NCTC418 […] 7.4” value (K. pneumoniae NCTC418; Table S2, […] MH, pH 7.4) was > 32 µg/mL. The “MIC K. pneumoniae NCTC418 […] 8.5” value (K. pneumoniae NCTC418; Table S2, […] MH, pH 8.5) was 32 µg/mL (≈ 24.2 µM), the “MIC K. pneumoniae NCTC418 Full MH 7.4” value (K. pneumoniae NCTC418; Table S2, full MH, pH 7.4) was > 32 µg/mL and the “MIC K. pneumoniae NCTC418 Full MH 8.5” value (K. pneumoniae NCTC418; Table S2, full MH, pH 8.5) was > 32 µg/mL. The “MIC P. aeruginosa PAO1, full MH at pH 7.4” value (P. aeruginosa PAO1; PAO1, 4 h, pH 7.4) was >32 ug/mL, the “MIC P. aeruginosa PAO1, full MH at pH 8.5” value (P. aeruginosa PAO1; PAO1, 4 h, pH 8.5) was >32 ug/mL and the “MIC P. aeruginosa PAO1 […] 7.4” value (P. aeruginosa PAO1; Table S2, […] MH, pH 7.4) was 4 µg/mL (≈ 3.03 µM). The “MIC P. aeruginosa PAO1 […] 8.5” value (P. aeruginosa PAO1; Table S2, […] MH, pH 8.5) was 4 µg/mL (≈ 3.03 µM), the “MIC P. aeruginosa PAO1 Full MH 7.4” value (P. aeruginosa PAO1; Table S2, full MH, pH 7.4) was > 32 µg/mL and the “MIC P. aeruginosa PAO1 Full MH 8.5” value (P. aeruginosa PAO1; Table S2, full MH, pH 8.5) was > 32 µg/mL. The “MIC P. aeruginosa PA14 2P4, […] MH at pH 8.5” value (PA14 2P4 (pmrB)) was 8 ug/mL, the “MIC P. aeruginosa PA14 4.13, […] MH at pH 8.5” value (PA14 4.13 (phoQ)) was 4 ug/mL and the “MIC P. aeruginosa PA14 4.18, […] MH at pH 8.5” value (PA14 4.18 (pmrB)) was 8 ug/mL. For the same compound, the “MIC S. aureus COL (MRSA), full MH at pH 7.4” value (S. aureus COL (MRSA); COL, 4 h, pH 7.4) was >32 ug/mL, the “MIC S. aureus COL (MRSA) […] 7.4” value (S. aureus COL (MRSA); Table S2, […] MH, pH 7.4) was 32 µg/mL (≈ 24.2 µM) and the “MIC S. aureus COL (MRSA) […] 8.5” value (S. aureus COL (MRSA); Table S2, […] MH, pH 8.5) was 8 µg/mL (≈ 6.05 µM). For the same compound, the “MIC S. aureus COL (MRSA) Full MH 7.4” value (S. aureus COL (MRSA); Table S2, full MH, pH 7.4) was > 32 µg/mL, the “MIC S. aureus COL (MRSA) Full MH 8.5” value (S. aureus COL (MRSA); Table S2, full MH, pH 8.5) was 32 µg/mL (≈ 24.2 µM) and the Hemolysis [1] was “none of them showed any measurable hemolysis”. The MHC [1] was >2000 µg/mL, the “CD %α with 5 mM DPC” value ([2]; DichroWeb, Contin-LL) was 11/11% and the “CD %α with 20% TFE” value ([2]; DichroWeb, Contin-LL) was 11/11%. The “CD %α with 5 mM DPC” value ([2]; Table S2) was 11%, the “CD %α with 20% TFE” value ([2]; Table S2) was 11% and the “MIC P. aeruginosa PA14” value (P. aeruginosa PA14) was 4 µg/mL (≈ 3.03 µM). The “MIC S. aureus Newman” value (S. aureus Newman) was 8 µg/mL (≈ 6.05 µM), the “Vesicle leakage activity on EYPC vesicles” value ([3]; egg yolk phosphatidyl choline vesicles) was “no activity” and the “Vesicle leakage activity on EYPG vesicles” value ([3]; fluorescein-loaded anionic EYPG vesicles) was “weak or no vesicle leakage activity”.
